Values joined by “and” are separate entries in the source; they are usually repeats but may differ in a detail not shown here. Equal values may be shown once. Where a SMILES comes first, the peptide text is derived from it. [ ]: non-standard residue; d: D form. Hyp = O=C(O)[C@@H]1C[C@@H](O)CN1
System: IL-4
Assay: Example 9 Luminex, LPS hPBMCs: IL-4
Format: cell-based, human
Protocol: Treatment Human PBMCs were pretreated with YY-101, YDE-011 and YDE-043 or reference compound; Xiidra® at various concentration (ranging from 1 nM to 100 uM) for 2 h before stimulation. An equal volume of 0.5% DMSO was used as a vehicle control. Then, the cells were treated with LPS at 5 ug/ml. The supernatants from treated cells were harvested at 24 h and placed in a 96 well for Luminex cytokine & chemokine profiling using a Luminex 200 multiplex assay (Luminex; R&D system, USA).
The main study arm with triplicate wells per group in a 24-well plate: • 1. Blank • 2. PBMC: 0.5% DMSO • 3. PBMC+LPS (5 ug/ml) • 4. PBMC+YY-101 100 uM • 5. PBMC+YY-101 10 uM • 6. PBMC+YY-101 1 uM • 7. PBMC+YY-101 0.1 uM • 8. PBMC+YY-101 0.01 uM • 9. PBMC+LPS (5 ug/ml)+Xiidra®100 uM • 10. PBMC+LPS (5 ug/ml)+Xiidra® 10 uM • 11. PBMC+LPS (5 ug/ml)+Xiidra® 1 uM • 12. PBMC+LPS (5 ug/ml)+Xiidra®0.1 uM • 13. PBMC+LPS (5 ug/ml)+Xiidra®0.01 uM • 14. PBMC+LPS (5 ug/ml)+Xiidra®0.001 uM • 15. PBMC+LPS (5 ug/ml)+YY-101 100 uM • 16. PBMC+LPS (5 ug/ml)+YY-101 10 uM • 17. PBMC+LPS (5 ug/ml)+YY-101 1 uM • 18. PBMC+LPS (5 ug/ml)+YY-101 0.1 uM • 19. PBMC+LPS (5 ug/ml)+YY-101 0.01 uM • 20. PBMC+LPS (5 ug/ml)+YY-101 0.001 uM • 21. PBMC+LPS (5 ug/ml)+YDE-011 100 uM • 22. PBMC+LPS (5 ug/ml)+YDE-011 10 uM • 23. PBMC+LPS (5 ug/ml)+YDE-011 1 uM • 24. PBMC+LPS (5 ug/ml)+YDE-011 0.1 uM • 25. PBMC+LPS (5 ug/ml)+YDE-011 0.01 uM • 26. PBMC+LPS (5 ug/ml)+YDE-011 0.001 uM • 27. PBMC+LPS (5 ug/ml)+YDE-043 100 uM • 28. PBMC+LPS (5 ug/ml)+YDE-043 10 uM • 29. PBMC+LPS (5 ug/ml)+YDE-043 1 uM • 30. PBMC+LPS (5 ug/ml)+YDE-043 0.1 uM • 31. PBMC+LPS (5 ug/ml)+YDE-043 0.01 uM • 32. PBMC+LPS (5 ug/ml)+YDE-043 0.001 uM
Multiplex assay was used to measure 30 cytokines and chemokines. The 1:2, 1:10 and 1:200 diluted cell supernatant and serial dilution of the standard were dispensed into a 96 well plate at 50 ul/well. Then, the pre-mixed cocktail of antibody-coated magnetic beads was dispensed at 50 ul/well and incubated at room temperature for 2 h in a horizontal orbital microplate shaker at 800±500 rpm. The beads were washed using a magnetic device to prevent loss. The biotin-antibody was dispensed in 50 ul of each well and incubated at room temperature for 1 h in a shaker at 800±500 rpm. After washing, streptavidin-PE was added at 50 ul/well and incubated at room temperature for 30 min in a shaker under the same conditions. Finally, after washing, wash buffer (100 ul/well) was added to the plate and incubated in a shaker for 2 min. The Luminex™ 200 setting were set according to the manufacturer's protocol. The data was calculated with a standard five-parameter logistic nonlinear regression analysis of the data (xPonent software 4.2, USA). The levels of cytokine/chemokine are normalized to the live cell counts (1×10^5 cells/mL) and presented as concentrations per mL (pg/mL or ng/mL).

[1] = PBMC + LPS(5 ug/ml) + test article 0.001 uM, Mean
[2] = PBMC + LPS(5 ug/ml) + test article 0.001 uM, single replicates
[3] = PBMC + LPS(5 ug/ml) + test article 0.01 uM, Mean
[4] = PBMC + LPS(5 ug/ml) + test article 0.01 uM, single replicates
[5] = PBMC + LPS(5 ug/ml) + test article 0.1 uM, Mean
[6] = PBMC + LPS(5 ug/ml) + test article 0.1 uM, single replicates
[7] = PBMC + LPS(5 ug/ml) + test article 1 uM, Mean
[8] = PBMC + LPS(5 ug/ml) + test article 1 uM, single replicates
[9] = PBMC + LPS(5 ug/ml) + test article 10 uM, Mean
[10] = PBMC + LPS(5 ug/ml) + test article 10 uM, single replicates
[11] = PBMC + LPS(5 ug/ml) + test article 100 uM, Mean
[12] = PBMC + LPS(5 ug/ml) + test article 100 uM, single replicates
[13] = PBMC + test article 0.01 uM, no LPS, Mean
[14] = PBMC + test article 0.01 uM, no LPS, single replicates
[15] = PBMC + test article 0.1 uM, no LPS, Mean
[16] = PBMC + test article 0.1 uM, no LPS, single replicates
[17] = PBMC + test article 1 uM, no LPS, Mean
[18] = PBMC + test article 1 uM, no LPS, single replicates
[19] = PBMC + test article 10 uM, no LPS, Mean
[20] = PBMC + test article 10 uM, no LPS, single replicates
[21] = PBMC + test article 100 uM, no LPS, Mean
[22] = PBMC + test article 100 uM, no LPS, single replicates

CC(C)C[C@H](NC(=O)CNC(=O)[C@H](CC(=O)O)NC(=O)[C@H](CCC(N)=O)NC(=O)CNC(=O)[C@@H]1C[C@@H](O)CN1)C(=O)N[C@@H](C)C(=O)NCC(=O)N1CCC[C@H]1C(=O)N[C@@H](CCCCN)C(=O)O [YY-101] (H-[Hyp]GQDGLAGPK-OH; N-terminus and C-terminus assumed)
Concentration, Bead name: IL-4 [1]: 26.0 pg/mL | MFI, Bead name: IL-4 [1]: 1.0 | conc/live cell, Bead name: IL-4 [1]: 4.0 pg/10^5 | Concentration, Bead name: IL-4 [2]: 18.4 pg/mL and 33.2 pg/mL and 26.4 pg/mL | MFI, Bead name: IL-4 [2]: 0.0 and 2.0 and 1.0 | conc/live cell, Bead name: IL-4 [2]: 3.2 pg/10^5 and 4.7 pg/10^5 and 4.0 pg/10^5 | Concentration, Bead name: IL-4 [3]: 33.2 pg/mL | MFI, Bead name: IL-4 [3]: 2.0 | conc/live cell, Bead name: IL-4 [3]: 5.4 pg/10^5 | Concentration, Bead name: IL-4 [4]: 33.2 pg/mL | MFI, Bead name: IL-4 [4]: 2.0 | conc/live cell, Bead name: IL-4 [4]: 5.2 pg/10^5 and 5.5 pg/10^5 and 5.4 pg/10^5 | Concentration, Bead name: IL-4 [5]: 39.2 pg/mL | MFI, Bead name: IL-4 [5]: 3.0 | conc/live cell, Bead name: IL-4 [5]: 6.8 pg/10^5 | Concentration, Bead name: IL-4 [6]: 39.4 pg/mL and 45.1 pg/mL and 33.2 pg/mL | MFI, Bead name: IL-4 [6]: 3.0 and 4.0 and 2.0 | conc/live cell, Bead name: IL-4 [6]: 6.4 pg/10^5 and 8.7 pg/10^5 and 5.4 pg/10^5 | Concentration, Bead name: IL-4 [7]: 33.2 pg/mL | MFI, Bead name: IL-4 [7]: 2.0 | conc/live cell, Bead name: IL-4 [7]: 5.1 pg/10^5 | Concentration, Bead name: IL-4 [8]: 33.2 pg/mL | MFI, Bead name: IL-4 [8]: 2.0 | conc/live cell, Bead name: IL-4 [8]: 5.3 pg/10^5 and 4.7 pg/10^5 and 5.4 pg/10^5 | Concentration, Bead name: IL-4 [9]: 23.7 pg/mL | MFI, Bead name: IL-4 [9]: 0.7 | conc/live cell, Bead name: IL-4 [9]: 3.6 pg/10^5 | Concentration, Bead name: IL-4 [10]: 26.4 pg/ml (2×) and 18.4 pg/ml | MFI, Bead name: IL-4 [10]: 1.0 (2×) and 0.0 | conc/live cell, Bead name: IL-4 [10]: 4.4 pg/10^5 and 4.1 pg/10^5 and 2.4 pg/10^5 | Concentration, Bead name: IL-4 [11]: 14.8 pg/mL | MFI, Bead name: IL-4 [11]: −0.3 | conc/live cell, Bead name: IL-4 [11]: 2.5 pg/10^5 | Concentration, Bead name: IL-4 [12]: 18.4 pg/ml (2×) and 7.7 pg/ml | MFI, Bead name: IL-4 [12]: 0.0 (2×) and −1.0 | conc/live cell, Bead name: IL-4 [12]: 2.9 pg/10^5 and 3.0 pg/10^5 and 1.5 pg/10^5 | Concentration, Bead name: IL-4 [13]: 27.9 pg/mL | MFI, Bead name: IL-4 [13]: 1.3 | conc/live cell, Bead name: IL-4 [13]: 5.6 pg/10^5 | Concentration, Bead name: IL-4 [14]: 22.6 pg/mL and 33.2 pg/mL | MFI, Bead name: IL-4 [14]: 0.5 and 2.0 | conc/live cell, Bead name: IL-4 [14]: 4.3 pg/10^5 and 6.9 pg/10^5 | Concentration, Bead name: IL-4 [15]: 29.8 pg/mL | MFI, Bead name: IL-4 [15]: 1.5 | conc/live cell, Bead name: IL-4 [15]: 5.9 pg/10^5 | Concentration, Bead name: IL-4 [16]: 26.4 pg/mL and 33.2 pg/mL | MFI, Bead name: IL-4 [16]: 1.0 and 2.0 | conc/live cell, Bead name: IL-4 [16]: 6.0 pg/10^5 and 5.7 pg/10^5 | Concentration, Bead name: IL-4 [17]: 18.4 pg/mL | MFI, Bead name: IL-4 [17]: 0.0 | conc/live cell, Bead name: IL-4 [17]: 3.3 pg/10^5 | Concentration, Bead name: IL-4 [18]: 18.4 pg/mL | MFI, Bead name: IL-4 [18]: 0.0 | conc/live cell, Bead name: IL-4 [18]: 3.3 pg/10^5 | Concentration, Bead name: IL-4 [19]: 47.4 pg/mL | MFI, Bead name: IL-4 [19]: 4.5 | conc/live cell, Bead name: IL-4 [19]: 7.6 pg/10^5 | Concentration, Bead name: IL-4 [20]: 55.5 pg/mL and 39.4 pg/mL | MFI, Bead name: IL-4 [20]: 6.0 and 3.0 | conc/live cell, Bead name: IL-4 [20]: 8.7 pg/10^5 and 6.5 pg/10^5 | Concentration, Bead name: IL-4 [21]: 13.0 pg/mL | MFI, Bead name: IL-4 [21]: −0.5 | conc/live cell, Bead name: IL-4 [21]: 1.9 pg/10^5 | Concentration, Bead name: IL-4 [22]: 7.7 pg/mL and 18.4 pg/mL | MFI, Bead name: IL-4 [22]: −1.0 and 0.0 | conc/live cell, Bead name: IL-4 [22]: 1.2 pg/10^5 and 2.6 pg/10^5

Reference: patent publication US20230146455A1, “TREATMENT OF INFLAMMATORY DISEASES WITH PEPTIDES AND PHARMACEUTICAL COMPOSITIONS” (Yuyu Pharma, Inc., priority 2020, published 2023)
